Consider 14 compounds from US20210238162A1, “CHEMICAL COMPOUNDS” (GlaxoSmithKline Intellectual Property Development Limited, priority 2015, published 2021).

Counter-ions that a name gives are not always drawn. A value given as a limit tells only on which side of the number the result lay.

T1 sequence (O60760 whole entry): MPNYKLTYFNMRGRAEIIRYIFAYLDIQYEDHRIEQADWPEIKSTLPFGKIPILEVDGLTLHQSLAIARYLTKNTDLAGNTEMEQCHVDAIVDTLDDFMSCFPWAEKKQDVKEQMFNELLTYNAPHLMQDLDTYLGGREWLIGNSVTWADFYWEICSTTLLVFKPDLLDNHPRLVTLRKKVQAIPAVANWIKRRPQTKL

The first assay has as its target T1, haematopoietic prostaglandin D synthase (H-PGDS) (Homo sapiens, UniProt O60760).
T1 construct: Full length human H-PGDS cDNA (Invitrogen Ultimate ORF IOH13026) was amplified by PCR; made in house; host or cells: E. coli BL21 (DE3*), vector pET22b+
Description: H-PGDS RapidFire High Throughput Mass Spectrometry Assay. In kind it is biochemical. The settings on record: H-PGDS RapidFire MS assay, mean pIC50; read-out: Potency Range (mean pIC50) (converted). An outline of the steps:
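PGH2 (~10 μM burst) generated in situ from arachidonic acid by FLAG-tagged human COX-2 (Sf9-expressed), then converted to PGD2 by full-length human His-tagged H-PGDS from E. coli. PGD2 and PGF2α (substrate surrogate) quantified by RapidFire SPE-triple quadrupole MS; percent conversion calculated.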
As for `C#CCOC[C@H]1CC[C@H](NC(=O)c2cnc3cc(OC(F)F)c(F)cc3c2)CC1` [Example 101, 7-(Difluoromethoxy)-6-fluoro-N-(trans-4-((prop-2-yn-1-yloxy)methyl)cyclohexyl)quinoline-3-carboxamide], the IC50 was < 10 nM.

As for `O=C(Nc1nccs1)c1cnc2cc(OC(F)F)ccc2c1` [Example 10, 7-(Difluoromethoxy)-N-(thiazol-2-yl)quinoline-3-carboxamide], the IC50 was 10 to 79.4 nM. For `C[C@H](N[C@H]1CC[C@H](NC(=O)c2cnc3cc(OC(F)F)c(F)cc3c2)CC1)C(F)(F)F` [Example 63, 7-(Difluoromethoxy)-6-fluoro-N-(trans-4-(((S)-1,1,1-trifluoropropan-2-yl)amino)cyclohexyl)quinoline-3-carboxamide], the IC50 was < 10 nM.

On to `O=C(N[C@H]1CCNC1=O)c1cnc2cc(N3CCC3)c(Cl)cc2c1` [Example 166, (S)-7-(Azetidin-1-yl)-6-chloro-N-(2-oxopyrrolidin-3-yl)quinoline-3-carboxamide trifluoroacetic Acid Salt], for which the IC50 is < 10 nM. As to `CC(C)(O)[C@H]1CC[C@H](NC(=O)c2cnc3cc(Cl)c(Cl)cc3c2)CC1` [Example 202A, 6,7-Dichloro-N-(trans-4-(2-hydroxypropan-2-VI)cyclohexyl)quinoline-3-carboxamide], the IC50 was 10 to 79.4 nM.

Turning to `O=C(N[C@H]1CC[C@H](N[C@@H](CO)C(F)(F)F)CC1)c1cnc2cc(OC(F)F)c(Br)cc2c1` [Example 153, 6-Bromo-7-(difluoromethoxy)-N-(trans-4-(((S)-1,1,1-trifluoro-3-hydroxypropan-2-yl)amino)cyclohexyl)quinoline-3-carboxamide], the IC50 was < 10 nM. Regarding `N#Cc1ccc(N2CC(NC(=O)c3cnc4cc(OC(F)F)c(F)cc4c3)C2)nc1` [Example 98, N-(1-(5-Cyanopyridin-2-yl)azetidin-3-yl)-7-(difluoromethoxy)-6-fluoroquinoline-3-carboxamide], the IC50 was 10 to 79.4 nM. On to `CN(C)c1cc2ncc(C(=O)N[C@H]3CC[C@H](C(C)(C)O)CC3)cc2cc1F` [Example 160, 7-(Dimethylamino)-6-fluoro-N-(trans-4-(2-hydroxypropan-2-yl)cyclohexyl)quinoline-3-carboxamide], for which the IC50 is < 10 nM. For `COc1ccc2cc(C(=O)Nc3nccs3)cnc2c1F` [Example 47, 8-Fluoro-7-methoxy-N-(thiazol-2-yl)quinoline-3-carboxamide hydrochloride], the IC50 is 10 to 79.4 nM.

Take `Cn1nnnc1N1CCC(NC(=O)c2cnc3cc(Cl)ccc3c2)CC1` [Example 109, 7-Chloro-N-(1-(1-methyl-1H-tetrazol-5-yl)piperidin-4-yl)quinoline-3-carboxamide]: the IC50 was 100 to 1000 nM. On to `CC(C)(O)[C@H]1CC[C@H](NC(=O)c2cnc3cc(Cl)ccc3c2)CC1` [Example 204, 7-Chloro-N-(trans-4-(2-hydroxypropan-2-yl)cyclohexyl)quinoline-3-carboxamide], for which the IC50 was 100 to 1000 nM. The same measure, in the same setting: in the case of `Cn1nnnc1N1CCC(NC(=O)c2cnc3cc4c(cc3c2)OCCO4)CC1` [Example 111, N-(1-(1-Methyl-1H-tetrazol-5-yl)piperidin-4-yl)-2,3-dihydro-[1,4]dioxino[2,3-q]quinoline-8-carboxamide] it was 10 to 79.4 nM; in that of `NS(=O)(=O)O[C@H]1CC[C@H](NC(=O)c2cnc3cc(OC(F)F)c(Cl)cc3c2)CC1` [Example 141, trans-4-(6-Chloro-7-(difluoromethoxy)quinoline-3-carboxamido)cyclohexyl sulfamate], < 10 nM. For the compound `Cn1nc(C2CC2)cc1NC(=O)c1cnc2cc(OC(F)F)c(Cl)cc2c1` [Example 128, 6-Chloro-N-(3-cyclopropyl-1-methyl-1H-pyrazol-5-yl)-7-(difluoromethoxy)quinoline-3-carboxamide], the IC50 was 10 to 79.4 nM.

Still in this assay, the particulars now being: in at least one experimental run; read-out: H-PGDS pIC50 value (converted).
Consider `CN(C)c1cc2ncc(C(=O)N[C@H]3CC[C@H](C(C)(C)O)CC3)cc2cc1F` [Example 160, 7-(Dimethylamino)-6-fluoro-N-(trans-4-(2-hydroxypropan-2-yl)cyclohexyl)quinoline-3-carboxamide], for which the IC50 is 3.98 nM. Same read-out and setting: in the case of `CC(C)(O)[C@H]1CC[C@H](NC(=O)c2cnc3cc(Cl)ccc3c2)CC1` [Example 204, 7-Chloro-N-(trans-4-(2-hydroxypropan-2-yl)cyclohexyl)quinoline-3-carboxamide] it was 158 nM.
